Data as given in US9050378B2, “N2S2 chelate-targeting ligand conjugates” (Board of Regents, The University of Texas System, priority 2003, dated 2015).
Values belong to the compound of their own block, whether it stands above or below them.

How the values were obtained:
[1] = test system: A549 human lung cancer tumor; test: Tissue distribution in lung tumor-bearing nude mice; assay type: in vivo
Procedure: Female athymic nude mice (NCr-nu/nu, NCI, Bethasda, Md.) were inoculated with human lung cancer cells (A549 tumor cell line, 3×10^6 cells/mouse, intramuscular) by one author in the mid-dorsal region. After the tumor reached 6 mm, separate biodistribution studies using ^99mTc-EC-DG and 18F-FDG were conducted. Each received ^99mTc-EC-DG or 18F-FDG intravenously (n=3/time point). The injection activity was 1-3 μCi/mouse. The injected mass of ^99mTc-EC-DG was 0.2 mg/rodent.

RBA CRL-1747 = test: In vitro cellular uptake and blocking of ^99mTc-EC-angiostatin with unlabeled angiostatin; assay type: cell-based, rat; conditions: unlabeled angiostatin 0-200 μM, RBA CRL-1747, 2 hours; read-out: IC-50 of angiostatin (inhibition of ^99mTc-EC-angiostatin uptake)
Procedure: The IC-50 of angiostatin was 176 μM (R^2=0.998) (FIG. 3).

[2] = test system: RBA CRL-1747 mammary tumor; test: Biodistribution in breast (mammary) tumor-bearing rats; assay type: in vivo, rat; conditions: Table 2
Procedure: (§1) Biodistribution was assessed in mammary tumor-bearing rats (RBA CRL-1747, n=3/time interval, iv). Studies were performed 14 to 17 days after implantation when tumors reached approximately 1 cm in diameter. Following administration of the radiotracer, rats were sacrificed at 0.5-4 hrs. The selected tissues were excised, weighed and counted for radioactivity by using a gamma counter (Packard Instruments, Downers Grove, Ill.). The biodistribution of tracer in each sample was calculated as percentage of the injected dose per gram of tissue wet weight (% ID/g).
as §1, with “breast” for “mammary”

Compound: OC[C@H]1OC(O)[C@H]([18F])[C@@H](O)[C@@H]1O (stereo partly drawn) [^18FDG, [^18F]fluorodeoxyglucose, reference compound]
- Blood ([1]; 30 min): 0.793 ± 0.067 % of injected dose per gram of tissue weight
- Brain ([1]; 30 min): 6.557 ± 0.390 % of injected dose per gram of tissue weight
- Heart ([1]; 30 min): 11.94 ± 2.571 % of injected dose per gram of tissue weight
- Intestine ([1]; 30 min): 2.322 ± 0.542 % of injected dose per gram of tissue weight
- Kidney ([1]; 30 min): 1.137 ± 0.117 % of injected dose per gram of tissue weight
- Liver ([1]; 30 min): 1.051 ± 0.057 % of injected dose per gram of tissue weight
- Lung ([1]; 30 min): 2.490 ± 0.209 % of injected dose per gram of tissue weight
- Muscle ([1]; 30 min): 4.876 ± 0.621 % of injected dose per gram of tissue weight
- Spleen ([1]; 30 min): 1.824 ± 0.196 % of injected dose per gram of tissue weight
- Stomach ([1]; 30 min): 5.046 ± 0.461 % of injected dose per gram of tissue weight
- Thyroid ([1]; 30 min): 4.490 ± 0.526 % of injected dose per gram of tissue weight
- Tumor ([1]; 30 min): 2.226 ± 0.150 % of injected dose per gram of tissue weight
- Tumor/Blood ([1]; 30 min): 2.821 ± 0.144
- Tumor/Lung ([1]; 30 min): 0.912 ± 0.119
- Tumor/Muscle ([1]; 30 min): 0.463 ± 0.026
- Blood ([1]; 2 h): 0.236 ± 0.009 % of injected dose per gram of tissue weight
- Brain ([1]; 2 h): 3.113 ± 0.132 % of injected dose per gram of tissue weight
- Heart ([1]; 2 h): 20.33 ± 7.675 % of injected dose per gram of tissue weight
- Intestine ([1]; 2 h): 2.764 ± 0.496 % of injected dose per gram of tissue weight
- Kidney ([1]; 2 h): 0.553 ± 0.104 % of injected dose per gram of tissue weight
- Liver ([1]; 2 h): 0.586 ± 0.040 % of injected dose per gram of tissue weight
- Lung ([1]; 2 h): 2.222 ± 0.137 % of injected dose per gram of tissue weight
- Muscle ([1]; 2 h): 5.409 ± 0.611 % of injected dose per gram of tissue weight
- Spleen ([1]; 2 h): 1.903 ± 0.144 % of injected dose per gram of tissue weight
- Stomach ([1]; 2 h): 4.374 ± 0.864 % of injected dose per gram of tissue weight
- Thyroid ([1]; 2 h): 4.617 ± 0.400 % of injected dose per gram of tissue weight
- Tumor ([1]; 2 h): 1.699 ± 0.172 % of injected dose per gram of tissue weight
- Tumor/Blood ([1]; 2 h): 7.261 ± 1.007
- Tumor/Lung ([1]; 2 h): 0.775 ± 0.113
- Tumor/Muscle ([1]; 2 h): 0.319 ± 0.031
- Blood ([1]; 4 h): 0.203 ± 0.062 % of injected dose per gram of tissue weight
- Brain ([1]; 4 h): 2.065 ± 0.080 % of injected dose per gram of tissue weight
- Heart ([1]; 4 h): 19.35 ± 8.286 % of injected dose per gram of tissue weight
- Intestine ([1]; 4 h): 1.562 ± 0.342 % of injected dose per gram of tissue weight
- Kidney ([1]; 4 h): 0.568 ± 0.027 % of injected dose per gram of tissue weight
- Liver ([1]; 4 h): 0.785 ± 0.039 % of injected dose per gram of tissue weight
- Lung ([1]; 4 h): 2.280 ± 0.182 % of injected dose per gram of tissue weight
- Muscle ([1]; 4 h): 4.743 ± 0.610 % of injected dose per gram of tissue weight
- Spleen ([1]; 4 h): 1.591 ± 0.161 % of injected dose per gram of tissue weight
- Stomach ([1]; 4 h): 2.278 ± 0.455 % of injected dose per gram of tissue weight
- Thyroid ([1]; 4 h): 4.424 ± 0.442 % of injected dose per gram of tissue weight
- Tumor ([1]; 4 h): 1.606 ± 0.182 % of injected dose per gram of tissue weight
- Tumor/Blood ([1]; 4 h): 8.932 ± 1.973
- Tumor/Lung ([1]; 4 h): 0.717 ± 0.106
- Tumor/Muscle ([1]; 4 h): 0.346 ± 0.048
- tumor-to-tissue ratios, ^99mTc-EC-DG versus 18F-FDG ([1]; A549 nude mice, iv): higher tumor/blood ratios

- IC50 (RBA CRL-1747): 176 µM
Compound: angiostatin

- Blood ([2]; 1 Hour): 0.273 ± 0.039 % ID/g
- Intestine ([2]; 1 Hour): 0.787 ± 0.106 % ID/g
- Kidney ([2]; 1 Hour): 8.991 ± 0.268 % ID/g
- Liver ([2]; 1 Hour): 0.367 ± 0.006 % ID/g
- Lung ([2]; 1 Hour): 0.187 ± 0.029 % ID/g
- Muscle ([2]; 1 Hour): 0.043 ± 0.002 % ID/g
- Stomach ([2]; 1 Hour): 0.127 ± 0.106 % ID/g
- Thyroid ([2]; 1 Hour): 0.229 ± 0.118 % ID/g
- Tumor ([2]; 1 Hour): 0.149 ± 0.020 % ID/g
- Tumor/Blood ([2]; 1 Hour): 0.544 ± 0.004
- Tumor/Lung ([2]; 1 Hour): 0.797 ± 0.022
- Tumor/Muscle ([2]; 1 Hour): 3.414 ± 0.325
- Urine ([2]; 1 Hour): 11.045 ± 6.158 % ID/g
- Blood ([2]; 2 Hour): 0.211 ± 0.001 % ID/g
- Intestine ([2]; 2 Hour): 0.401 ± 0.093 % ID/g
- Kidney ([2]; 2 Hour): 9.116 ± 0.053 % ID/g
- Liver ([2]; 2 Hour): 0.286 ± 0.073 % ID/g
- Lung ([2]; 2 Hour): 0.144 ± 0.002 % ID/g
- Muscle ([2]; 2 Hour): 0.028 ± 0.009 % ID/g
- Stomach ([2]; 2 Hour): 0.037 ± 0.027 % ID/g
- Thyroid ([2]; 2 Hour): 0.106 ± 0.003 % ID/g
- Tumor ([2]; 2 Hour): 0.115 ± 0.002 % ID/g
- Tumor/Blood ([2]; 2 Hour): 0.546 ± 0.010
- Tumor/Lung ([2]; 2 Hour): 0.797 ± 0.002
- Tumor/Muscle ([2]; 2 Hour): 4.425 ± 1.397
- Urine ([2]; 2 Hour): 13.192 ± 4.505 % ID/g
- Blood ([2]; 4 Hour): 0.149 ± 0.008 % ID/g
- Intestine ([2]; 4 Hour): 0.103 ± 0.009 % ID/g
- Kidney ([2]; 4 Hour): 7.834 ± 1.018 % ID/g
- Liver ([2]; 4 Hour): 0.234 ± 0.016 % ID/g
- Lung ([2]; 4 Hour): 0.120 ± 0.012 % ID/g
- Muscle ([2]; 4 Hour): 0.019 ± 0.001 % ID/g
- Stomach ([2]; 4 Hour): 0.043 ± 0.014 % ID/g
- Thyroid ([2]; 4 Hour): 0.082 ± 0.005 % ID/g
- Tumor ([2]; 4 Hour): 0.096 ± 0.005 % ID/g
- Tumor/Blood ([2]; 4 Hour): 0.649 ± 0.005
- Tumor/Lung ([2]; 4 Hour): 0.798 ± 0.007
- Tumor/Muscle ([2]; 4 Hour): 5.093 ± 0.223
- Urine ([2]; 4 Hour): 8.693 ± 2.981 % ID/g
- Blood ([2]; 30 Min.): 0.435 ± 0.29 % ID/g
- Intestine ([2]; 30 Min.): 0.173 ± 0.029 % ID/g
- Kidney ([2]; 30 Min.): 7.914 ± 0.896 % ID/g
- Liver ([2]; 30 Min.): 0.508 ± 0.062 % ID/g
- Lung ([2]; 30 Min.): 0.272 ± 0.019 % ID/g
- Muscle ([2]; 30 Min.): 0.060 ± 0.006 % ID/g
- Stomach ([2]; 30 Min.): 0.136 ± 0.060 % ID/g
- Thyroid ([2]; 30 Min.): 0.219 ± 0.036 % ID/g
- Tumor ([2]; 30 Min.): 0.342 ± 0.163 % ID/g
- Tumor/Blood ([2]; 30 Min.): 0.776 ± 0.322
- Tumor/Lung ([2]; 30 Min.): 1.256 ± 0.430
- Tumor/Muscle ([2]; 30 Min.): 5.841 ± 3.253
- Urine ([2]; 30 Min.): 9.124 ± 0.808 % ID/g
Compound: O=C([O-])[C@H](C[S-])NCCN[C@@H](CS)C(=O)[O-].[O]=[Tc+3] [^99mTc-EC, ^99mTc-L,L-ethylenedicysteine, reference compound]
